Assay results: patent US4093724A, “Novel-3-(4-quinolylamino)-2-thiophene-carboxylates” (Roussel Uclaf, priority 1976, dated 1978)
Counter-ions that a name gives are not always drawn.

tested on: mice (stretching and twisting provoked by intraperitoneal injection of acetic acid); experiment: Analgesic Activity: acetic acid-induced stretching test in mice (based on Koster et al); format: in vivo; conditions: Mus musculus, fasted 24 hours, test product oral 30 minutes before i.p. acetic acid (60 mg/kg), stretchings counted during 15 minutes after injection, read-out: AD50 (dose which reduced by 50% the number of stretching as compared to the controls)
Procedure: The test was based on that of Koster et al [Fed. Proc., Vol. 18 (1959) p. 412] wherein the intraperitoneal injection of acetic acid provokes in mice repeated stretching and twisting which persists for more than 6 hours and an analgesic prevents or suppresses this syndrom which is considered to be the exteriorization of a diffuse abdominal pain. A solution of 0.6% acetic acid in water containing 10% of arabic gum is used and the dose which causes the syndrom under these conditions is 0.01 ml/g or 60 mg/kg of acetic acid. The test products were orally administered 30 minutes before the intraperitoneal injection of acetic acid and the mice were fasted for 24 hours before the test.
For each dose and for the controls required in each test, groups of 5 mice were used and the stretchings were observed and counted for each mouse and added for each group, during a period of 15 minutes right after the injection. The AD50 or dose which reduced by 50% the number of stretching as compared to the controls was determined.

`O=C(OCCN1CCN(c2cccc(C(F)(F)F)c2)CC1)c1sccc1Nc1ccnc2c(C(F)(F)F)cccc12` [Example 1, 2-[4-(3-trifluoromethylphenyl)-1-piperazinyl]-ethyl 3-[8-trifluoromethyl-4-quinolylamino]-2-thiophene-carboxylate dihydrochloride] and `O=C(OCCN1CCN(c2ccc(Cl)cc2)CC1)c1sccc1Nc1ccnc2c(C(F)(F)F)cccc12` [Example 2, 2-[4-(4-chlorophenyl)-1-piperazinyl]-ethyl 3-(8-trifluoromethyl-4-quinolylamino)-2-thiophene-carboxylate] are within 1.5-fold of each other in ED50: 20 mg/kg for the first, 15 mg/kg for the second.

In the case of `O=C(OCCN1CCN(c2cccc(C(F)(F)F)c2)CC1)c1sccc1Nc1ccnc2cc(Cl)ccc12` [Example 3, 2-[4-(3-trifluoromethylphenyl)-1-piperazinyl]-ethyl 3-(7-chloro-4-quinolylamino)-2-thiophene-carboxylate], the ED50 is reported as 20 mg/kg.
